Patent US20240217950A1, “PESTICIDALLY ACTIVE CYCLIC AMINE COMPOUNDS” (SYNGENTA CROP PROTECTION AG, priority 2021, published 2024)

Tested on: Tetranychus urticae (Two-Spotted Spider Mite)
Experiment: Tetranychus urticae (two-spotted spider mite) feeding/contact activity on bean leaf discs
Format: in vivo
Details: foliar, 192 h, application rate of 200 ppm, sprayed bean leaf discs, mixed population (mobile stages), 8 days after infestation
Procedure: Example B1: Tetranychus urticae (Two-Spotted Spider Mite)
Feeding/contact activity Bean leaf discs on agar in 24-well microtiter plates were sprayed with aqueous test solutions prepared from 10′000 ppm DMSO stock solutions. After drying the leaf discs were infested with a mite population of mixed ages. The samples were assessed for mortality on mixed population (mobile stages) 8 days after infestation.

## COCc1nc(OCc2cc(C(F)(F)F)ccc2F)c(C#N)cc1C(=O)N1CCC(c2noc(C)n2)CC1 [Compound P1.2, 2-[[2-fluoro-5-(trifluoromethyl)phenyl]methoxy]-6-(methoxymethyl)-5-[4-(5-methyl-1,2,4-oxadiazol-3-yl)piperidine-1-carbonyl]pyridine-3-carbonitrile]
  mortality at 200 ppm: ≥ 80%
